Where two headings read alike, the source gives them in different places.
How the values were obtained:
[1] = cited from earlier work
[2] = approximately 5 ml of 8.4% solution
Protocol: In particular, 5 mls of this 8.4% solution can be administered into a patient's stomach at least 15 minutes prior to baseline measurement of gastric juice pH and administration of stimulant, such as pentagastrin.

[3] = in vivo; cited from earlier work
[4] = cited from earlier work; for Volume of HCl neutralized by 30 ml: 30 ml (sodium citrate 0.3M)
[5] = test system: gastric juice pH; conditions: cited from earlier work
[6] = test system: gastric juice pH; conditions: 30 ml of 0.3 M, pretreatment in elective cesarean section patients; cited from earlier work

In the case of `NCCc1c[nH]cn1` [histamine], the side effects ([1]; large doses) is given as “severe hypotension”.
In the case of `Cl.Cl.NCCc1ccn[nH]1` [betazole hydrocholoride], the side effects ([1]; orally administered) is given as “few side effects”.
With `O=C([O-])O.[Na+]` [sodium bicarbonate] the “volume of gastric juice (pH 1.0) neutralized” value [2] was 50 ml.
In the case of `CSCC[C@H](NC(=O)[C@H](Cc1c[nH]c2ccccc12)NC(=O)CCNC(=O)OC(C)(C)C)C(=O)N[C@@H](CC(=O)O)C(=O)N[C@@H](Cc1ccccc1)C(N)=O` [pentagastrin], the half-life [3] is given as “approximately 10 minutes”, the safety profile ([1]; in vivo) is given as “very good safety profile” and the side effects ([1]; intravenous 0.5 mcg/kg bolus over 30 seconds) is given as “abdominal fullness and an urge to defecate”. For the same compound, the side effects ([1]; intravenous administration) was “transient mild side effects, e.g., anxiety, palpitations”.
For `O=C([O-])CC(O)(CC(=O)[O-])C(=O)[O-].[Na+].[Na+].[Na+]` [Sodium Citrate, sodium citrate], the “Volume of HCl neutralized by 30 ml” value ([4]; HCl pH 0.8) is listed as 140 mL, the “Volume of HCl neutralized by 30 ml” value ([4]; HCl pH 1 (1.0)) is listed as 255 mL and the “Volume of HCl neutralized by 30 ml” value ([4]; HCl pH 1 (1.0), listed as sodium citrate) is listed as “up to 255 ml”. The “Volume of HCl neutralized by 30 ml” value ([4]; HCl pH 1.5) was 750 mL, the “pH (value in parentheses after the antacid's name)” value ([4]; presumably pH of the antacid itself, not explained) was “Sodium Citrate (8.5)” and the “gastric juice pH, mean after administration” value ([5]; 50 ml of 0.3 M into the stomach via nasogastric tube, within two minutes, baseline 1.2±0.1) was 4.8. The “gastric juice pH, range after administration” value ([5]; 50 ml of 0.3 M via nasogastric tube, within two minutes) was 6.7-7.0, the “time gastric juice pH maintained above 6” value ([5]; 50 ml of 0.3 M) was “at least 2 hours” and the “gastric juice pH maintained after administration” value ([5]; 50 ml of 0.3 M, for at least 2 hours) was “above 6”. For the same compound, the “change in gastric juice pH” value [6] was “significant increase in gastric juice pH”.

From patent US11925450B2, “Methods and apparatus for guiding medical care based on detected gastric function” (Gravitas Medical, Inc., priority 2011, dated 2024)
